Where two headings read alike, the source gives them in different places.
Assay: Isothermal titration calorimetry (ITC), binding to ganglioside GM1
Settings: Table 1, pH 7.2, 35° C.
Procedure: Isothermal calorimetric titrations (ITC) were performed with a MicroCal VP-ITC microcalorimeter in pH 7.2 phosphate buffer solution. In individual titrations, 15 μL GM1:DPC 1:5 containing solution was injected from the computer-controlled […] microsyringe at intervals of 300 s into the ligand solution, dissolved in the same buffer as the GM1. All measurements were carried out at 35° C. The ligands concentration in the cell was 15 μM, and the concentration of GM1 in the syringe was 300 μM. Control experiments were performed by injecting GM1 into the cell containing buffer but no ligands Experiments were repeated twice. The experimental data were fitted to the one binding site or two independent sites model (adjustable parameters: ΔHb1, Kd1, n1 and ΔHb2, Kd2, n2) using a nonlinear least-squares procedure. Errors were calculated by jackknife resampling.
Binding of Trp-Tyr-Lys-Tyr-Trp (WYKYW) and analogues to various ganglioside derivatives was tested as described under “Isothermal Titration calorimetry” to explore the specificity of the interaction between WYKYW and GM1. Affinity data for binding between WYKYW and various ganglioside derivatives (FIG. 1), and for binding between various mutated sequences of WYKYW and GM1 (Table 1) were obtained by Isothermal Titration calorimetry as described in Example 1 (General methods).

[1] = first binding step, read-out: KD1/nM
[2] = second binding step, read-out: KD2/nM

| Kd [1] [nM] | KD1/nM (first binding step) | Compound | Kd [2] [nM] |
| --- | --- | --- | --- |
| 3930 |  | NCCCC[C@H](NC(=O)[C@H](Cc1ccc(O)cc1)NC(=O)[C@@H](N)Cc1c[nH]c2ccccc12)C(=O)N[C@@H](Cc1ccc(O)cc1)C(=O)N[C@H](Cc1c[nH]c2ccccc12)C(N)=O [WYKYw] |  |
| 3240 |  | NCCCC[C@H](NC(=O)[C@H](Cc1ccc(O)cc1)NC(=O)[C@@H](N)Cc1c[nH]c2ccccc12)C(=O)N[C@H](Cc1ccc(O)cc1)C(=O)N[C@@H](Cc1c[nH]c2ccccc12)C(N)=O [WYKyW] |  |
| 4520 |  | NCCCC[C@@H](NC(=O)[C@H](Cc1ccc(O)cc1)NC(=O)[C@@H](N)Cc1c[nH]c2ccccc12)C(=O)N[C@@H](Cc1ccc(O)cc1)C(=O)N[C@@H](Cc1c[nH]c2ccccc12)C(N)=O [WYkYW] |  |
| 881 |  | NCCCC[C@H](NC(=O)[C@H](Cc1ccc(O)cc1)NC(=O)[C@H](N)Cc1c[nH]c2ccccc12)C(=O)N[C@@H](Cc1ccc(O)cc1)C(=O)N[C@@H](Cc1c[nH]c2ccccc12)C(N)=O [wYKYW] |  |
| 1690 |  | WYKAW [Ala point mutation of WYKYW] |  |
| 1060 |  | WYKYA [Ala point mutation of WYKYW] |  |

Further lines, the compound ahead of its results:

| Compound | Kd [1] [nM] | KD1/nM (first binding step) | Kd [2] [nM] |
| --- | --- | --- | --- |
| NCCCC[C@H](NC(=O)[C@@H](Cc1ccc(O)cc1)NC(=O)[C@@H](N)Cc1c[nH]c2ccccc12)C(=O)N[C@@H](Cc1ccc(O)cc1)C(=O)N[C@@H](Cc1c[nH]c2ccccc12)C(N)=O [WyKYW] | 892 |  |  |
| AYKYW [Ala point mutation of WYKYW] |  | not fittable |  |
| Trp-Tyr-Lys-β^3-homo-Tyr-Trp [WYKbYW] | 40 |  | 1200 |
| Trp-β^3-homo-Tyr-Lys-Tyr-Trp [WbYKYW] | 60 |  | 1000 |
| WAKYW [Ala point mutation of WYKYW] | 5760 |  |  |
| WYAYW [Ala point mutation of WYKYW] | 10500 |  |  |
| β^3-homo-Trp-Tyr-Lys-Tyr-Trp [bWYKYW] | 4.3 |  | 2100 |

Reference: patent publication US20220389057A1, “ENDOCYTOSIS ROUTING SEQUENCE PEPTIDE FOR CELL DELIVERY SYSTEMS” (SZEGEDI TUDOMÁNYEGYETEM, priority 2019, published 2022)
